Laboratory results taken from US11766437B2, “Combination therapies for inhibition of TTK protein kinase” (UNIVERSITY HEALTH NETWORK, priority 2018, dated 2023).

Legend:
[1] = Animal body weight monitoring / tolerability in CT26 tumor-bearing BALB/cJ mice; type: in vivo, mouse
Procedure: (§1) BALB/cJ mice were inoculated subcutaneously with 1×10^6 CT26 cells. The mice were then randomized. Animal weights were monitored daily, and tumor volume was measured three times per week.
(§2) Treatments were initiated when tumor volumes reached an average size of ˜60 mm^3. To treat an established tumor, the animals were first assigned into groups, i.e., the control group receiving rat IgG2a […], the group receiving the compound CFI-402257 monotherapy, the group receiving the rat IgG2a anti-PD-1 antibody monotherapy and the group receiving the combination therapy. The compound CFI-402257 and the vehicle [10% (v/v) NMP/40% (v/v) PEG-300/50% (v/v) water for the hydrochloride form; or 80-90% (v/v) PEG-300 or PEG-400 20-10% (v/v) water for the bisphosphate hemihydrate form] were administered by oral gavage (PO), at 6 mg/kg daily (QD) for 21 days. The anti-PD-1 antibody or the isotype control were administered by intraperitoneal (IP) injection. 150 μg anti-PD-1 antibody was administered in four doses, i.e., on Days 0, 3, 6 and 10. These treatment studies were carried out in duplicates.

[2] = test system: CT26 mouse colon carcinoma; assay: Treatment of established subcutaneous CT26 tumors in BALB/cJ mice (syngeneic CT26 mouse colon carcinoma model); type: in vivo; settings: CFI-402257 6 mg/kg PO QD 21 days, anti-PD-1 antibody 150 μg IP Days 0, 3, 6, 10
Procedure: as §1
Tumor volume (in cubic millimeters or mm^3) was defined as 100×[1−TVf, treated−TVi, treated)/(TVf, control−TVi, control)], where TVf is the average tumor volume at the end of study and TVi is the average tumor volume at the end initiation of treatment. In cases in which tumor regression occurred, percentage of tumor regression was defined as 100×[1−(TVf, treated/TVi, treated)]. At the completion of each study, the mice were killed by an anesthetic overdose, and tumor tissue was removed for further analysis.
as §2, with “The anti-PD-1 antibody or the isotype control were administered by intraperitoneal (IP) injection. 150 μg anti-PD-1 antibody was administered in four doses, i.e., on Days 0, 3, 6 and 10. These treatment studies were carried out in duplicates.” left out

For `Cc1cc(-c2cnn3c(NC[C@H]4C[C@@](C)(O)C4)cc(Oc4cccnc4)nc23)ccc1C(=O)NC1CC1` [CFI-402257], the “tolerability of the administered dosage” value ([1]; CFI-402257 6 mg/kg PO QD 21 days, anti-PD-1 antibody 150 μg IP Days 0, 3, 6, 10) was “well-tolerated”, the “animals recording significant body weight loss” value ([1]; first experiment) was “none” and the body weight loss ([1]; second experiment) was under 7.5%. The complete tumor regression ([2]; first and duplicate experiment together (FIGS. 1 and 2)) was “no instances in which complete regression was observed” and the “effect on tumor growth (tumor volume)” value ([2]; single agent arms, first and duplicate experiment (FIGS. 1B, 1C, 2B, 2C)) was “tumor growth delay”.
